Laboratory results from PMC4207660, “Identification and Characterization of Hundreds of Potent and Selective Inhibitors of Trypanosoma brucei Growth from a Kinase-Targeted Library Screening Campaign” (PLoS Neglected Tropical Diseases, 2014).
Converted amounts (≈) assume the structure as drawn. Like-named read-outs stand apart in the source and are kept apart here.

Assays:
[1] = CLND kinetic solubility assay; format: physicochemical; conditions: phosphate buffered saline, pH 7.4, aqueous buffer, kinetic from dmso stock; Measured; read-out: Aq Sol
Method: 5 µL of 10 mM DMSO stock solution was diluted to 100 µL with pH 7.4 phosphate buffered saline, equilibrated for 1 hour at room temperature, filtered through Millipore MultiscreenHTS-PCF filter plates (MSSL BPC). The filtrate was quantified by suitably calibrated flow injection Chemi-Luminescent Nitrogen Detection.

[2] = GSK in-house artificial membrane permeability assay; format: in vitro ADME; conditions: PAMPA, pH 7.4, Measured
Method: 250 µL and 100 µL 50 mM phosphate buffer pH 7.4 with 0.5% encapsin was applied to the donor and receiver compartments, respectively. 2.5 µL of a 10 mM stock solution of compound in DMSO was added to the donor compartment. The assay was incubated at RT for 3 hours. […] The permeability (logPapp) measures how fast molecules pass through the lipid membrane is expressed in nm/s.

[3] = molecular target: Cytochrome P450 (CYP450) (Homo sapiens, UniProt P08684); experiment: Cytochrome P450 inhibition profile; format: in vitro ADME; conditions: Measured
Sequence of Cytochrome P450 (CYP450) (P08684 2-503 limits assumed): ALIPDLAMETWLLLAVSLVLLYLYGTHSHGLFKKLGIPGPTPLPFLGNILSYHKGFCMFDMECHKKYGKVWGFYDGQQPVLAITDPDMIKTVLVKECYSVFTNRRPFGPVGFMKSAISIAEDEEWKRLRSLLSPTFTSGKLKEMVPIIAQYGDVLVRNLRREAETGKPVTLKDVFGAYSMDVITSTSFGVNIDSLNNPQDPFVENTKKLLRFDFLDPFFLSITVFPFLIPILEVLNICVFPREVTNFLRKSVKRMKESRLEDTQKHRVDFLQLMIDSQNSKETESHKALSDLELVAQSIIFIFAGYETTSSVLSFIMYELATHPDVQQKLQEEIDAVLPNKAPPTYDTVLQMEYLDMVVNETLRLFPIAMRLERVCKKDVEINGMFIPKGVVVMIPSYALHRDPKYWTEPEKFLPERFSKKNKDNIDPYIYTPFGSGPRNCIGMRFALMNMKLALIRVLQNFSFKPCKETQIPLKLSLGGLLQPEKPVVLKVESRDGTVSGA
Method: The P450 inhibition profile of the inhibitors was determined as previously described.

[4] = molecular target: SYK (Homo sapiens, UniProt P43405); experiment: Human kinase selectivity screening: SYK; format: biochemical; conditions: read-out: SYK pIC50 values (converted)
From the text: (§1) These kinases were chosen for general selectivity screening owing to their broad representation of the human kinome.

[5] = molecular target: JNK1 (Homo sapiens, UniProt P45983); experiment: Human kinase selectivity screening: JNK1; format: biochemical; conditions: read-out: JNK1 pIC50 values (converted)
Sequence of JNK1 (P45983 whole entry): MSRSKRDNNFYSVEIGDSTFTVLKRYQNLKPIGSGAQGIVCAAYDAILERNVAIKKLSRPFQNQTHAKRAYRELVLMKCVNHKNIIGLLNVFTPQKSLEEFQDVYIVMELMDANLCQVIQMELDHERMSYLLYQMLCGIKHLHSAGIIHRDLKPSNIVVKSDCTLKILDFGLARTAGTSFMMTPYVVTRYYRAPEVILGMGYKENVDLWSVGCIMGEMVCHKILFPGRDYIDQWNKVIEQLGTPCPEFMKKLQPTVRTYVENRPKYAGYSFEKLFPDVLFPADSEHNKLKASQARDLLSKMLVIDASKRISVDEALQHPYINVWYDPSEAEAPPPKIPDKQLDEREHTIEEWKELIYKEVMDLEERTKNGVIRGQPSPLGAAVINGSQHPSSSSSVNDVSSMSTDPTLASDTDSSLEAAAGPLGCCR
From the text: as §1

[6] = molecular target: T1, ITK (Homo sapiens, UniProt Q08881); experiment: Human kinase selectivity screening: ITK; format: biochemical; conditions: read-out: ITK pIC50 values (converted)
T1 sequence (Q08881 1-620): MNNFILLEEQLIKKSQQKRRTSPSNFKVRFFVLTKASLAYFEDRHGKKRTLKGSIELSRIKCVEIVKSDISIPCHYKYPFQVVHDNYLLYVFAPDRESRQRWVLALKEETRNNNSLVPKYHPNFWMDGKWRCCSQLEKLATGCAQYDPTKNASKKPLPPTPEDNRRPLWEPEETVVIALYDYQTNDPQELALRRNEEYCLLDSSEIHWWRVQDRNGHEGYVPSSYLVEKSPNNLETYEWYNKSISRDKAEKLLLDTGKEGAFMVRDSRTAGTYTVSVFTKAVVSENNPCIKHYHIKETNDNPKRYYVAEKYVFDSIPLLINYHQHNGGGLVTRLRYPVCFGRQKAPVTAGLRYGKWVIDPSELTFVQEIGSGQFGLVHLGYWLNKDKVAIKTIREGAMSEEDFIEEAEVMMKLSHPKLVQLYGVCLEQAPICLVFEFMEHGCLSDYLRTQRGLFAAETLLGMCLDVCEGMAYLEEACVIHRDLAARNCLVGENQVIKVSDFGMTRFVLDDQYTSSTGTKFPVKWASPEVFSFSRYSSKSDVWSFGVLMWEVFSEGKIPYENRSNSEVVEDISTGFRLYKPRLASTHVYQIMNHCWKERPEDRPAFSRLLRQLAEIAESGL
From the text: as §1

[7] = molecular target: LCK (Homo sapiens, UniProt P06239); experiment: Human kinase selectivity screening: LCK; format: biochemical; conditions: read-out: LCK pIC50 values (converted)
Sequence of LCK (P06239 whole entry): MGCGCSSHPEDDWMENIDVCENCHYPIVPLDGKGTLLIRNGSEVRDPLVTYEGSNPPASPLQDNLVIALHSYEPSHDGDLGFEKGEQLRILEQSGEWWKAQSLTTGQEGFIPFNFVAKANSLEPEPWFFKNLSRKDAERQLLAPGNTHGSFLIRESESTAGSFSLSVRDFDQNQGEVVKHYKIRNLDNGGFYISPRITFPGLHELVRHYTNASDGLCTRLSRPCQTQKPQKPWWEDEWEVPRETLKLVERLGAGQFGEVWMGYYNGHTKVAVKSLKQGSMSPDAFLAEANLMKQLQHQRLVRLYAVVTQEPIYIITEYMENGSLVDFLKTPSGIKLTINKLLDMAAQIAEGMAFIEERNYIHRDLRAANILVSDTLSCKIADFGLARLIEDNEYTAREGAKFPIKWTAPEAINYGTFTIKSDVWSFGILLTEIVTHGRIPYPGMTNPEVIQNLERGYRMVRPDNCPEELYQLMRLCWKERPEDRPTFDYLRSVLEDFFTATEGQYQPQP
From the text: as §1

[8] = molecular target: T2, JAK3 (Homo sapiens, UniProt P52333); experiment: Human kinase selectivity screening: JAK3; format: biochemical; conditions: read-out: JAK3 pIC50 values (converted)
T2 sequence (P52333 1-1124): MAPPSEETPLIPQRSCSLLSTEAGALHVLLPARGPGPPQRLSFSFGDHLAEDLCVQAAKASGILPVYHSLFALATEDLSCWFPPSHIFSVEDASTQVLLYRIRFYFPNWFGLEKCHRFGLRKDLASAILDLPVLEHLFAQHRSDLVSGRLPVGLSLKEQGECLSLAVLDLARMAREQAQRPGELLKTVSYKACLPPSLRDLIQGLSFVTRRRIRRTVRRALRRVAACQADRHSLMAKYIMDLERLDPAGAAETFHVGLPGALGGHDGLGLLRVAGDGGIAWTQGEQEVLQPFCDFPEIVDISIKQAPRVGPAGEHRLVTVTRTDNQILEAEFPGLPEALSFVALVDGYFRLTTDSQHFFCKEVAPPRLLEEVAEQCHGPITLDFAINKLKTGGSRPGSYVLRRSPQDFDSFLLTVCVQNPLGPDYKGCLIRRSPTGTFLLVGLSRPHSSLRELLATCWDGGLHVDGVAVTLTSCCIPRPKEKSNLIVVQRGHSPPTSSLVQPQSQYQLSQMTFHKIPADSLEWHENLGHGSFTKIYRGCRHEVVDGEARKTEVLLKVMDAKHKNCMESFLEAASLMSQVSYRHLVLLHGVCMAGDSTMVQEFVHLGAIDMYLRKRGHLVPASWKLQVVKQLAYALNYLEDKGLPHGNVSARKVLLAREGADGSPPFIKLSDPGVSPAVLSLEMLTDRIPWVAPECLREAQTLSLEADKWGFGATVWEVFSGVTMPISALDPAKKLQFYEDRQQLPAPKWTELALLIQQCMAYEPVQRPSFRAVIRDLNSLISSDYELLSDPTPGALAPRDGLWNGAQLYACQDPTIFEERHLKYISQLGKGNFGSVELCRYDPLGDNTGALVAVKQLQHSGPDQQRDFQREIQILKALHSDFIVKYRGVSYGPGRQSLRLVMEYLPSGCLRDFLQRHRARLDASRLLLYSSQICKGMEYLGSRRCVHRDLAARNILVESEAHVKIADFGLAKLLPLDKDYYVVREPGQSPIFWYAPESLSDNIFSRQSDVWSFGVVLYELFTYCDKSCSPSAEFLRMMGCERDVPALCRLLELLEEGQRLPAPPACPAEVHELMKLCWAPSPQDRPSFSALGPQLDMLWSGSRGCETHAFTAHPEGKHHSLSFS
From the text: as §1

[9] = molecular target: JAK2 (Homo sapiens, UniProt O60674); experiment: Human kinase selectivity screening: JAK2; format: biochemical; conditions: read-out: JAK2 pIC50 values (converted)
Sequence of JAK2 (O60674 whole entry): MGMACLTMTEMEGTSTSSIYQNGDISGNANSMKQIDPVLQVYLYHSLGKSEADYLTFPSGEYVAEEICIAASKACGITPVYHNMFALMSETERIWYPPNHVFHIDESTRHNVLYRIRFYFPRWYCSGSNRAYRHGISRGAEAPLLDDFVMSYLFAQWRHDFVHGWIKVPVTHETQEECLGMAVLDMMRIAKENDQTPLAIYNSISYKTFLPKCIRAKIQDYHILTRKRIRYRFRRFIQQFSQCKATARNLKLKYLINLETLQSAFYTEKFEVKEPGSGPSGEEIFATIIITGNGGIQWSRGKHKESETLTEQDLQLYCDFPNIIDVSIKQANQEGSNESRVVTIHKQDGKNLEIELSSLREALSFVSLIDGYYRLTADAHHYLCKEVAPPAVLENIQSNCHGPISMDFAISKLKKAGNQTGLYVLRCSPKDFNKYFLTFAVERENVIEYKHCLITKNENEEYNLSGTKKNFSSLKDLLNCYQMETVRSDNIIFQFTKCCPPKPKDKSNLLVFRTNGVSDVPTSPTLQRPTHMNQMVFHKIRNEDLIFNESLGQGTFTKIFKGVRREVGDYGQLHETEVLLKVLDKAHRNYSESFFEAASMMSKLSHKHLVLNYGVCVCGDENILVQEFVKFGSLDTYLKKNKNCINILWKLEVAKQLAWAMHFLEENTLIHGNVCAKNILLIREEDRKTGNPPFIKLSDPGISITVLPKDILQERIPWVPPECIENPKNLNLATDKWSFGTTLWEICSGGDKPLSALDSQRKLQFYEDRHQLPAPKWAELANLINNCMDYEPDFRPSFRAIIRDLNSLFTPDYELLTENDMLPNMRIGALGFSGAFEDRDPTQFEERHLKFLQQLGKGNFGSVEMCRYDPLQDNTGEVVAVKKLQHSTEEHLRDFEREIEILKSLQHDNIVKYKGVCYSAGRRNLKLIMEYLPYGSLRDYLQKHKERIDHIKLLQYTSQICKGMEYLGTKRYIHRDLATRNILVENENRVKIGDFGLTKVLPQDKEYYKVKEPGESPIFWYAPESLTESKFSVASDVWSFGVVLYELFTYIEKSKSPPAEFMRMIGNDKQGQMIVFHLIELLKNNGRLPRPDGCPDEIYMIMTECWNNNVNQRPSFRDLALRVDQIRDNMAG
From the text: as §1

[10] = molecular target: LRRK2 (Homo sapiens, UniProt Q5S007); experiment: Human kinase selectivity screening: LRRK2; format: biochemical; conditions: read-out: LRRK2 pIC50 values (converted)
Sequence of LRRK2 (Q5S007 whole entry): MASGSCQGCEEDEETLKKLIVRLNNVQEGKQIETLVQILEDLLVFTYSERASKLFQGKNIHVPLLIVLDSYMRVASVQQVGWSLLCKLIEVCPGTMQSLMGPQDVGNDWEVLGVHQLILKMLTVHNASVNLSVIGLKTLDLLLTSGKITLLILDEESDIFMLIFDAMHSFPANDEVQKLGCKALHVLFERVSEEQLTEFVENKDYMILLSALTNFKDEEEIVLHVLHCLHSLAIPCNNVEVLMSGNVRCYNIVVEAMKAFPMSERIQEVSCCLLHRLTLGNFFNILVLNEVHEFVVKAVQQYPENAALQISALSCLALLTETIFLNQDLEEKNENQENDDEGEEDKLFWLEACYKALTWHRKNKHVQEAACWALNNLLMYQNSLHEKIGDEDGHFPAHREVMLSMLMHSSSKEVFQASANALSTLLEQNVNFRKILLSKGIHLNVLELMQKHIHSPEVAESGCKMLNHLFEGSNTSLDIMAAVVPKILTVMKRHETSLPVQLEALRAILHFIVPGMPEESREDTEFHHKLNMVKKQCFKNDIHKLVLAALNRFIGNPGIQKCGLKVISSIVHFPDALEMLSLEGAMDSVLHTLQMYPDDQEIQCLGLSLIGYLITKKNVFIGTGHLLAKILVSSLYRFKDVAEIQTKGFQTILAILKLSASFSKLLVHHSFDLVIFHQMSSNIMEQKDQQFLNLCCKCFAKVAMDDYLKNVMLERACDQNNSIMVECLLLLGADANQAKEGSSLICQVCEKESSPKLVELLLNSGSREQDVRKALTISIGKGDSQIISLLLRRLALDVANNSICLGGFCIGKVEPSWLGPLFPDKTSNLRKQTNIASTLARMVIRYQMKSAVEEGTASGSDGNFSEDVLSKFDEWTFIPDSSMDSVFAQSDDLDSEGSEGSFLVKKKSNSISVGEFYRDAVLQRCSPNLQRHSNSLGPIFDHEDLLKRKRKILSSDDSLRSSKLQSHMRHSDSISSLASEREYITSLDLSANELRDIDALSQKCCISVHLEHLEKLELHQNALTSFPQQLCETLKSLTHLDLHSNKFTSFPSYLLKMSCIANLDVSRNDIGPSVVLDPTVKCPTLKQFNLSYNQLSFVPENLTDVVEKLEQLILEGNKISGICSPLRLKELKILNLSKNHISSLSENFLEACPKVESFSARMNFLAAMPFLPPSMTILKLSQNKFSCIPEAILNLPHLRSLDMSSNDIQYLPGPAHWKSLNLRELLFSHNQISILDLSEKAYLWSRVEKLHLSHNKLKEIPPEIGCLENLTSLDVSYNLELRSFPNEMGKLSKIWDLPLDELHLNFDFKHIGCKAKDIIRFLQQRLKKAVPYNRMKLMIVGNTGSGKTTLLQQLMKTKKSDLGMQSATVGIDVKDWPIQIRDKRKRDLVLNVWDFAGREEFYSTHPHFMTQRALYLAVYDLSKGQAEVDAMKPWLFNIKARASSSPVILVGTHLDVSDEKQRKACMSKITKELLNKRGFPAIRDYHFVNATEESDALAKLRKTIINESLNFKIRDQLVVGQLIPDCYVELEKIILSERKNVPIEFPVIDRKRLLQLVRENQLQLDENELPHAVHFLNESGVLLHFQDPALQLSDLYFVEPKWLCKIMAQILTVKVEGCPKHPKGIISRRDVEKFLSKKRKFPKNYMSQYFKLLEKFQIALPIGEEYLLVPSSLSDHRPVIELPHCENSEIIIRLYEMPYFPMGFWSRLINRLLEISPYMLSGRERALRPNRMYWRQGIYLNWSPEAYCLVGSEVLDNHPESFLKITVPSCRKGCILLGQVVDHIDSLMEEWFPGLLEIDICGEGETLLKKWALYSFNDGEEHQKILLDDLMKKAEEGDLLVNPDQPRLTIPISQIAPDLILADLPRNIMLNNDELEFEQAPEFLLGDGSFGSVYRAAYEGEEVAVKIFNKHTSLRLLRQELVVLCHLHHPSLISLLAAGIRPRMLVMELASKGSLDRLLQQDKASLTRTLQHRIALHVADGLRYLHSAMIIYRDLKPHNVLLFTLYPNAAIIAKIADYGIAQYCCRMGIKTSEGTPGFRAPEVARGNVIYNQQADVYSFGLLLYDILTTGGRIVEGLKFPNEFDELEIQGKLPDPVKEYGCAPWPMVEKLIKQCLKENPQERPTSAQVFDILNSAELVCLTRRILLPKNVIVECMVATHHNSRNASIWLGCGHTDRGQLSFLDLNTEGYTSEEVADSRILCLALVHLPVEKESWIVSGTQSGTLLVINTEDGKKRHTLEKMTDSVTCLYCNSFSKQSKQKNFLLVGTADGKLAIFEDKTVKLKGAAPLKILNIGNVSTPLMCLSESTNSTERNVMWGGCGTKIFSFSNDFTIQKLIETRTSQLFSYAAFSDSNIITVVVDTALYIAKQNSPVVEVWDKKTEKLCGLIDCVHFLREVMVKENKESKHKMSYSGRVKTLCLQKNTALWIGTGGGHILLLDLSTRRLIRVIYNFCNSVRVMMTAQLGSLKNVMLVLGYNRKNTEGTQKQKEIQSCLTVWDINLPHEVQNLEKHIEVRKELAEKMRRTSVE
From the text: as §1

[11] = CYP3A4, VG substrate, read-out: CYP3A4VG pXC50 (converted)
[12] = CYP3A4, VR substrate, read-out: CYP3A4VR pXC50 (converted)

SMILES: Cc1cc(Nc2cc(C3CC3)[nH]n2)nc(N2CCCCC2)n1 [NEU-0001127]
- solubility kinetic at 1 h [1]: 265 µM (≈ 79.1 µg/mL)
- Papp at 3 h, 100 µM [2]: 38 ×10⁻⁶ cm/s
- IC50 [3, 11]: 10000 nM
- IC50 [3, 12]: > 50100 nM
- IC50 [4]: 1000 nM
- IC50 [5]: 1000 nM
- IC50 [6]: 1000 nM
- IC50 [7]: 1000 nM
- IC50 [8]: 631 nM
- IC50 [9]: 398 nM
- IC50 [10]: 3980 nM

SMILES: Cn1cc(-c2cnc3[nH]cc(-c4cccc(C#N)c4)c3c2)cn1 [NEU-0001207]
- solubility kinetic at 1 h [1]: 12 µM (≈ 3.59 µg/mL)
- Papp at 3 h, 100 µM [2]: 23 ×10⁻⁶ cm/s
- IC50 [3, 11]: 1260 nM
- IC50 [3, 12]: 20000 nM
- IC50 [4]: 3160 nM
- IC50 [5]: 501 nM
- IC50 [6]: 1000 nM
- IC50 [7]: 2510 nM
- IC50 [8]: 631 nM
- IC50 [9]: 794 nM
- IC50 [10]: 79.4 nM

SMILES: O=C(Nc1ccc(-c2ccnc3[nH]ccc23)s1)C1(Cc2ccccc2)CCCNC1 (stereo not drawn) [NEU-0001240]
- solubility kinetic at 1 h [1]: 107 µM (≈ 44.6 µg/mL)
- Papp at 3 h, 100 µM [2]: 18 ×10⁻⁶ cm/s
- IC50 [3, 11]: 1260 nM
- IC50 [3, 12]: 1580 nM
- IC50 [4]: 20000 nM
- IC50 [5]: > 25100 nM
- IC50 [6]: 316 nM
- IC50 [7]: 1580 nM
- IC50 [8]: 501 nM
- IC50 [9]: 501 nM
- IC50 [10]: 316 nM

SMILES: CCCNc1nc(Nc2cnn(C)c2)c2c(=O)[nH]ccc2n1 [NEU-0001187]
- solubility kinetic at 1 h [1]: 252 µM (≈ 75.4 µg/mL)
- Papp at 3 h, 100 µM [2]: 33 ×10⁻⁶ cm/s
- IC50 [3, 11]: 3980 nM
- IC50 [3, 12]: > 50100 nM
- IC50 [4]: 63.1 nM
- IC50 [5]: 501 nM
- IC50 [6]: 63.1 nM
- IC50 [7]: 200 nM
- IC50 [8]: 2.51 nM
- IC50 [9]: 3.98 nM
- IC50 [10]: 15.8 nM

SMILES: O=S1(=O)Cc2ccc(Nc3nccc(-c4ccc(F)cc4)n3)cc2C1 [NEU-0001142]
- solubility kinetic at 1 h [1]: 1 µM (≈ 0.355 µg/mL)
- Papp at 3 h, 100 µM [2]: 7.7 ×10⁻⁶ cm/s
- IC50 [3, 11]: 2510 nM
- IC50 [3, 12]: 10000 nM
- IC50 [4]: 501 nM
- IC50 [5]: 200 nM
- IC50 [6]: > 25100 nM
- IC50 [7]: 2510 nM
- IC50 [8]: 631 nM
- IC50 [9]: 50.1 nM
- IC50 [10]: 39.8 nM

SMILES: CCCCc1nc(Nc2cccc(C)c2)c2c(=O)[nH]ccc2n1 [NEU-0001191]
- solubility kinetic at 1 h [1]: 22 µM (≈ 6.78 µg/mL)
- IC50 [3, 11]: 79.4 nM
- IC50 [3, 12]: 6310 nM
- IC50 [4]: 2510 nM
- IC50 [5]: 2000 nM
- IC50 [6]: > 25100 nM
- IC50 [7]: > 25100 nM
- IC50 [8]: 200 nM
- IC50 [9]: 251 nM
- IC50 [10]: 63.1 nM

SMILES: CN(C)Cc1ccc(-c2[nH]c3ncc(C#N)cc3c2-c2ccccc2)cc1 [NEU-0001206]
- solubility kinetic at 1 h [1]: 17 µM (≈ 5.99 µg/mL)
- Papp at 3 h, 100 µM [2]: 46 ×10⁻⁶ cm/s
- IC50 [3, 12]: > 50100 nM
- IC50 [4]: 251 nM
- IC50 [5]: > 25100 nM
- IC50 [6]: 12.6 nM
- IC50 [7]: 50.1 nM
- IC50 [8]: 501 nM
- IC50 [9]: 501 nM
- IC50 [10]: 126 nM
